Marks after values point to notes of the source that are not given here.
Tests used:
mice [1] = assay: Toxicity, mice oral; assay type: in vivo; conditions: oral administration
Procedure: Toxicity induced by a compound is detected in mice using the standardized rotorod test described by Dunham & Miya (1957). Untreated control mice, when placed on a 6 r.p.m. rotation rod, can maintain their equilibrium for a prolonged period of time.
Toxicity across time doe not occur until dosages of 300mg/kg. […] Quantitative results obtained for fluoro felbamate 12 in mice indicated a MES ED50 of approximately 20 mg/kg with a safety ratio of at least five (see Table 3). Results obtained for oral administration of fluoro felbamate 12 to rats indicated a MES ED50 of about 3 mg/kg with no toxicity at doses up to 500 mg/kg.

focal seizures = assay: Hippocampal kindling model (kindled rats), i.p.; assay type: in vivo, adult male Sprague-Dawley rats; set-up: key to Seizure Score ± S.E.M.: Racine seizure score (stage 5 = generalized seizure); conditions: for Number Protected / Number Tested / Afterdischarge Duration (sec) ± S.E.M / Seizure Score ± S.E.M.: i.p.
Description: The hippocampal kindling model can be used to evaluate a compound's ability to affect both the expression and acquisition of focal seizures. The hippocampal kindling paradigm as described by Lothman and Williamson (Lothman, 1994) allows the temporal effects of a drug to be evaluated in a single animal. This procedure requires the surgical placement ofbipolar electrodes in the ventral hippocampus of adult male Sprague-Dawley rats. Stage five behavioral seizures are produced by using a stimulus consisting of a 50 Hz, 10 s train of 1 ms biphasic 200 uA pulses delivered every 30 min for 6 hours (12 stimuli per day) on alternating days for a total of 60 stimulations (five stimulus days). Prior to evaluating a candidate's anticonvulsant activity, a drug free control period consisting of supramaximal stimulations are recorded to verify the stability of a stage five generalized seizure.
A single dose of the candidate compound is then administered intraperitoneally (i.p.), 15 min following the last control stimulation. The anticonvulsant activity of the drug is assessed every 30 min for three to four hours starting 15 min after administering the test material. After each stimulation, individual Racine seizure scores and afterdischarge durations are recorded. Rats are used again in drug trials after four to five drug- and stimulus-free days.

[2] = Minimal neurotoxicity (TOX), rotorod test, mice i.p.; assay type: in vivo; conditions: in vivo, ip; mouse, I.P.
Description: (§1) The fluoro derivatives synthesized were submitted to the National Institute of Neurological Disorders and Stroke (NINDS) for evaluation in a standard panel of assays. Two convulsant tests (MES and scMET), and a toxicity screen (rotorod in mice, positional sense and gait in rats) were employed for evaluating the compounds activity as neuroprotecting agents. These testing procedures are described in detail in Molecular and Cellular Targets for Anti-epileptic Drugs, eds. […] The felbamate derivatives were evaluated for anticonvulsant activity following intraperitoneal (i.p.) administration in mice and oral administration in rats. […]

mice [3] = assay: as above; assay type: in vivo; conditions: for TOX, number of animals exhibiting toxic effects / total number of animals tested: mice i.p.
Description: as §1

seizures = assay: NINDS standard panel of assays (MES, scMET, toxicity screen), overall; assay type: in vivo; conditions: relative to felbamate
Description: The fluoro derivatives synthesized were submitted to the National Institute of Neurological Disorders and Stroke (NINDS) for evaluation in a standard panel of assays. Two convulsant tests (MES and scMET), and a toxicity screen (rotorod in mice, positional sense and gait in rats) were employed for evaluating the compounds activity as neuroprotecting agents. These testing procedures are described in detail in Molecular and Cellular Targets for Anti-epileptic Drugs, eds. G. Avanzini, G. Regesta, P. Tanganelli, M. Avoli, 1997, John Libbey & Company Ltd, pp 191-198. The felbamate derivatives were evaluated for anticonvulsant activity following intraperitoneal (i.p.) administration in mice and oral administration in rats.

[4] = Dose Responses, 25 mg/kg (time not given)
[5] = Dose Responses, 50 mg/kg (time not given)
[6] = Dose Responses, 100 mg/kg (time not given)

In the case of `NC(=O)OCC(F)(COC(N)=O)c1ccccc1` [fluoro felbamate, 2-Fluoro-2-phenyl-1,3-propanediol dicarbamate], the “no toxicity at doses up to” value (mice [1]) was “up to 218 mg/kg”, the “change in afterdischarge duration (in words)” value (focal seizures; 100mg/kg) was “corresponding decrease” and the “change in seizure score (in words)” value (focal seizures; 100mg/kg) was “significant drop”. For the same compound, the “Number Protected / Number Tested” value (focal seizures; Dose Responses, 25 mg/kg) was 0/7, the “Afterdischarge Duration (sec) ± S.E.M” value (focal seizures; [4]) was 71.43 ± 5.50 s and the “Seizure Score ± S.E.M.” value (focal seizures; [4]) was 4.57 ± 0.20. For the same compound, the “Number Protected / Number Tested” value (focal seizures; Dose Responses, 50 mg/kg) was 3/7, the “Afterdischarge Duration (sec) ± S.E.M” value (focal seizures; [5]) was 68.57 ± 20.14 s and the “Seizure Score ± S.E.M.” value (focal seizures; [5]) was 2.86 ± 0.83. For the same compound, the “Number Protected / Number Tested” value (focal seizures; Dose Responses, 100 mg/kg) was 7/8^a, the “Afterdischarge Duration (sec) ± S.E.M” value (focal seizures; [6]) was 29.00 ± 10.86 s and the “Seizure Score ± S.E.M.” value (focal seizures; [6]) was 1.50 ± 0.57. For the same compound, the “Afterdischarge Duration (sec) ± S.E.M” value (focal seizures; 25 mg/kg, 15 min) was 77.29 ± 4.91 s, the “Seizure Score ± S.E.M.” value (focal seizures; 25 mg/kg, 15 min) was 4.86 ± 0.14 and the “Afterdischarge Duration (sec) ± S.E.M” value (focal seizures; 25 mg/kg, 45 min) was 71.43 ± 5.50 s. The “Seizure Score ± S.E.M.” value (focal seizures; 25 mg/kg, 45 min) was 4.57 ± 0.20, the “Afterdischarge Duration (sec) ± S.E.M” value (focal seizures; 25 mg/kg, 75 min) was 64.43 ± 11.19 s and the “Seizure Score ± S.E.M.” value (focal seizures; 25 mg/kg, 75 min) was 4.00 ± 0.69. The “Afterdischarge Duration (sec) ± S.E.M” value (focal seizures; 25 mg/kg, 105 min) was 70.29 ± 4.85 s, the “Seizure Score ± S.E.M.” value (focal seizures; 25 mg/kg, 105 min) was 4.57 ± 0.20 and the “Afterdischarge Duration (sec) ± S.E.M” value (focal seizures; 25 mg/kg, 135 min) was 53.86 ± 9.33 s. The “Seizure Score ± S.E.M.” value (focal seizures; 25 mg/kg, 135 min) was 4.43 ± 0.57, the “Afterdischarge Duration (sec) ± S.E.M” value (focal seizures; 25 mg/kg, 165 min) was 59.29 ± 3.28 s and the “Seizure Score ± S.E.M.” value (focal seizures; 25 mg/kg, 165 min) was 4.71 ± 0.18. The “Afterdischarge Duration (sec) ± S.E.M” value (focal seizures; 25 mg/kg, 195 min) was 54.00 ± 9.62 s, the “Seizure Score ± S.E.M.” value (focal seizures; 25 mg/kg, 195 min) was 3.86 ± 0.67 and the “Afterdischarge Duration (sec) ± S.E.M” value (focal seizures; 25 mg/kg, 225 min) was 53.29 ± 9.03 s. The “Seizure Score ± S.E.M.” value (focal seizures; 25 mg/kg, 225 min) was 4.00 ± 0.69, the “Afterdischarge Duration (sec) ± S.E.M” value (focal seizures; 25 mg/kg, 255 min) was 64.00 ± 3.42 s and the “Seizure Score ± S.E.M.” value (focal seizures; 25 mg/kg, 255 min) was 4.86 ± 0.14. The “Afterdischarge Duration (sec) ± S.E.M” value (focal seizures; 50 mg/kg, 15 min) was 67.14 ± 12.39 s, the “Seizure Score ± S.E.M.” value (focal seizures; 50 mg/kg, 15 min) was 3.86 ± 0.70 and the “Afterdischarge Duration (sec) ± S.E.M” value (focal seizures; 50 mg/kg, 45 min) was 68.57 ± 20.14 s. For the same compound, the “Seizure Score ± S.E.M.” value (focal seizures; 50 mg/kg, 45 min) was 2.86 ± 0.83, the “Afterdischarge Duration (sec) ± S.E.M” value (focal seizures; 50 mg/kg, 75 min) was 63.00 ± 17.45 s and the “Seizure Score ± S.E.M.” value (focal seizures; 50 mg/kg, 75 min) was 3.14 ± 0.83. For the same compound, the “Afterdischarge Duration (sec) ± S.E.M” value (focal seizures; 50 mg/kg, 105 min) was 60.86 ± 14.93 s, the “Seizure Score ± S.E.M.” value (focal seizures; 50 mg/kg, 105 min) was 3.43 ± 0.90 and the “Afterdischarge Duration (sec) ± S.E.M” value (focal seizures; 50 mg/kg, 135 min) was 65.00 ± 13.10 s. The “Seizure Score ± S.E.M.” value (focal seizures; 50 mg/kg, 135 min) was 3.71 ± 0.64, the “Afterdischarge Duration (sec) ± S.E.M” value (focal seizures; 50 mg/kg, 165 min) was 43.14 ± 14.67 s and the “Seizure Score ± S.E.M.” value (focal seizures; 50 mg/kg, 165 min) was 2.71 ± 0.97. For the same compound, the “Afterdischarge Duration (sec) ± S.E.M” value (focal seizures; 50 mg/kg, 195 min) was 52.86 ± 14.59 s, the “Seizure Score ± S.E.M.” value (focal seizures; 50 mg/kg, 195 min) was 3.14 ± 0.83 and the “Afterdischarge Duration (sec) ± S.E.M” value (focal seizures; 50 mg/kg, 225 min) was 39.86 ± 10.98 s. The “Seizure Score ± S.E.M.” value (focal seizures; 50 mg/kg, 225 min) was 3.00 ± 0.87, the “Afterdischarge Duration (sec) ± S.E.M” value (focal seizures; 50 mg/kg, 255 min) was 33.29 ± 11.76 s and the “Seizure Score ± S.E.M.” value (focal seizures; 50 mg/kg, 255 min) was 2.57 ± 0.72. For the same compound, the “Afterdischarge Duration (sec) ± S.E.M” value (focal seizures; 100 mg/kg, 15 min) was 40.75 ± 15.74 s, the “Seizure Score ± S.E.M.” value (focal seizures; 100 mg/kg, 15 min) was 1.75 ± 0.73 and the “Afterdischarge Duration (sec) ± S.E.M” value (focal seizures; 100 mg/kg, 45 min) was 29.00 ± 10.86 s. For the same compound, the “Seizure Score ± S.E.M.” value (focal seizures; 100 mg/kg, 45 min) was 1.50 ± 0.57, the “Afterdischarge Duration (sec) ± S.E.M” value (focal seizures; 100 mg/kg, 75 min) was 38.63 ± 12.58 s and the “Seizure Score ± S.E.M.” value (focal seizures; 100 mg/kg, 75 min) was 1.88 ± 0.67. For the same compound, the “Afterdischarge Duration (sec) ± S.E.M” value (focal seizures; 100 mg/kg, 105 min) was 53.38 ± 12.59 s, the “Seizure Score ± S.E.M.” value (focal seizures; 100 mg/kg, 105 min) was 2.38 ± 0.65 and the “Afterdischarge Duration (sec) ± S.E.M” value (focal seizures; 100 mg/kg, 135 min) was 33.63 ± 12.88 s. For the same compound, the “Seizure Score ± S.E.M.” value (focal seizures; 100 mg/kg, 135 min) was 2.00 ± 0.76, the “Afterdischarge Duration (sec) ± S.E.M” value (focal seizures; 100 mg/kg, 165 min) was 43.38 ± 12.79 s and the “Seizure Score ± S.E.M.” value (focal seizures; 100 mg/kg, 165 min) was 2.75 ± 0.65. For the same compound, the “Afterdischarge Duration (sec) ± S.E.M” value (focal seizures; 100 mg/kg, 195 min) was 45.25 ± 13.33 s, the “Seizure Score ± S.E.M.” value (focal seizures; 100 mg/kg, 195 min) was 2.25 ± 0.70 and the “Afterdischarge Duration (sec) ± S.E.M” value (focal seizures; 100 mg/kg, 225 min) was 47.38 ± 14.80 s. For the same compound, the “Seizure Score ± S.E.M.” value (focal seizures; 100 mg/kg, 225 min) was 2.50 ± 0.73, the “Afterdischarge Duration (sec) ± S.E.M” value (focal seizures; 100 mg/kg, 255 min) was 45.38 ± 13.92 s and the “Seizure Score ± S.E.M.” value (focal seizures; 100 mg/kg, 255 min) was 2.50 ± 0.65. For the same compound, the ED50 [2] was 115 mg/kg, the “TOX, number of animals exhibiting toxic effects / total number of animals tested” value (mice [3]; 3 mg/kg, 0.5h) was 0/4 and the “TOX, number of animals exhibiting toxic effects / total number of animals tested” value (mice [3]; 3 mg/kg, 4.0h) was 0/4. For the same compound, the “TOX, number of animals exhibiting toxic effects / total number of animals tested” value (mice [3]; 10 mg/kg, 0.5h) was 0/4, the “TOX, number of animals exhibiting toxic effects / total number of animals tested” value (mice [3]; 10 mg/kg, 4.0h) was 0/4 and the “TOX, number of animals exhibiting toxic effects / total number of animals tested” value (mice [3]; 30 mg/kg, 0.5h) was 1/4. The “TOX, number of animals exhibiting toxic effects / total number of animals tested” value (mice [3]; 30 mg/kg, 4.0h) was 0/2, the “TOX, number of animals exhibiting toxic effects / total number of animals tested” value (mice [3]; 100 mg/kg, 0.5h) was 4/8 and the “TOX, number of animals exhibiting toxic effects / total number of animals tested” value (mice [3]; 100 mg/kg, 4.0h) was 0/4. The “TOX, number of animals exhibiting toxic effects / total number of animals tested” value (mice [3]; 300 mg/kg, 0.5h) was 4/4, the “TOX, number of animals exhibiting toxic effects / total number of animals tested” value (mice [3]; 300 mg/kg, 4.0h) was 2/2 and the safety ratio (mice [3]; mice, i.p., toxicity relative to MES ED50) was “at least five”. The “times more active than felbamate” value (seizures) was 5-10 times.
